In ChEMBL document CHEMBL1201862, “PubChem BioAssay data set” (2004):
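48-hour exposure; five concentrations; linearly interpolated endpoints. The concentration for 50% growth inhibition is given as GI50.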 Activity calls are given as the source filed them. No stated cut-off is given here; in the data, active = GI50 up to about 1.1 µM and inactive = higher.

Experiments:
Assay in all cases: NCI anticancer screen, dose series, 48 h
UO-31 = system: UO-31
SK-MEL-2 = system: SK-MEL-2
SF-295 = system: SF-295
MOLT-4 = system: MOLT-4
HCC 2998 = system: HCC 2998
RXF 393 = system: RXF 393
SNB-19 = system: SNB-19
EKVX = system: EKVX
A549 = system: A549
OVCAR-4 = system: OVCAR-4
NCI-H522 = system: NCI-H522
OVCAR-5 = system: OVCAR-5
UACC-257 = system: UACC-257
NCI-H23 = system: NCI-H23
HCT-116 = system: HCT-116

Row | Structure (SMILES) | GI50 (UO-31) | GI50 (SK-MEL-2) | GI50 (SF-295) | GI50 (MOLT-4) | GI50 (HCC 2998) | GI50 (RXF 393) | GI50 (SNB-19) | GI50 (EKVX) | GI50 (A549) | GI50 (OVCAR-4) | GI50 (NCI-H522) | GI50 (OVCAR-5) | GI50 (UACC-257) | GI50 (NCI-H23) | GI50 (HCT-116)
1 | CCOC(=O)c1c2ccc(/C=C/c3ccccn3)ccc-2c(C(=O)OCC)c1N | > 100 µM (inactive) | > 100 µM (inactive) | > 100 µM (inactive) | > 100 µM (inactive) | > 100 µM (inactive) | > 100 µM (inactive) | > 100 µM (inactive) | > 100 µM (inactive) | > 100 µM (inactive) | 37.6 µM (inactive) | 91 µM (inactive) | > 100 µM (inactive) | > 100 µM (inactive) | > 100 µM (inactive) | 
2 | C=C(Br)N(CC)CC | > 100 µM (inactive) | > 100 µM (inactive) | > 100 µM (inactive) | > 100 µM (inactive) | > 100 µM (inactive) | > 100 µM (inactive) | > 100 µM (inactive) | > 100 µM (inactive) | > 100 µM (inactive) | > 100 µM (inactive) | > 100 µM (inactive) | > 100 µM (inactive) | > 100 µM (inactive) | > 100 µM (inactive) | > 100 µM (inactive)
3 | CC1=CC(=O)NCCN1C | > 100 µM (inactive) | > 100 µM (inactive) | > 100 µM (inactive) | > 100 µM (inactive) | > 100 µM (inactive) | > 100 µM (inactive) | > 100 µM (inactive) | > 100 µM (inactive) | > 100 µM (inactive) | > 100 µM (inactive) | > 100 µM (inactive) | > 100 µM (inactive) | > 100 µM (inactive) | > 100 µM (inactive) | > 100 µM (inactive)
4 | CC(C)OC(=O)C1=C(O)c2ccccc2S(=O)(=O)N1 |  | > 100 µM (inactive) | > 100 µM (inactive) | > 100 µM (inactive) | > 100 µM (inactive) |  | > 100 µM (inactive) | > 100 µM (inactive) | > 100 µM (inactive) | > 100 µM (inactive) | > 100 µM (inactive) | > 100 µM (inactive) | > 100 µM (inactive) | > 100 µM (inactive) | > 100 µM (inactive)
5 | CC(=O)N1C/C(=C\c2ccccc2)C(=O)/C(=C/c2ccccc2)C1 | 19.7 µM (inactive) | 24.9 µM (inactive) | 13.4 µM (inactive) | 4.2 µM (inactive) | 10.9 µM (inactive) | 16.2 µM (inactive) | 16.8 µM (inactive) | 24 µM (inactive) | 23.1 µM (inactive) | 17.6 µM (inactive) | 12.3 µM (inactive) | 19.4 µM (inactive) | 6.9 µM (inactive) | 19 µM (inactive) | 2.51 µM (inactive)
6 | C/C(CC(=O)Nc1ccccc1[N+](=O)[O-])=N\NC(N)=O | > 100 µM (inactive) | > 100 µM (inactive) | > 100 µM (inactive) | > 100 µM (inactive) | > 100 µM (inactive) | > 100 µM (inactive) |  | > 100 µM (inactive) | > 100 µM (inactive) |  | > 100 µM (inactive) | > 100 µM (inactive) | > 100 µM (inactive) | > 100 µM (inactive) | > 100 µM (inactive)
7 | OCc1c(-c2cccc3ccccc23)sc(-c2cccc3ccccc23)c1CO | 11.1 µM (inactive) | 14.6 µM (inactive) | 14.1 µM (inactive) | 9.04 µM (inactive) | 18.1 µM (inactive) |  | 12.5 µM (inactive) | 11.3 µM (inactive) |  |  | 10.5 µM (inactive) | 17 µM (inactive) | 12.8 µM (inactive) | 14.5 µM (inactive) | 
8 | COc1cc([C@@H]2c3cc4c(cc3[C@@H](NCc3ccccc3)C3COC(=O)[C@@H]32)OCO4)cc(OC)c1O (stereo not given in full) | 7.08 µM (inactive) | 23.4 µM (inactive) | 4.03 µM (inactive) | 0.891 µM (active) | 17.1 µM (inactive) | 20.8 µM (inactive) | 4.86 µM (inactive) | 13.1 µM (inactive) | 1.41 µM (inactive) | 38.2 µM (inactive) |  | 29 µM (inactive) | 27.1 µM (inactive) | 3.64 µM (inactive) | 14 µM (inactive)
9 | O=C(CC(=O)c1cccc2ccccc12)C(=O)Nc1ccc(Cl)cc1 | > 100 µM (inactive) |  | > 100 µM (inactive) | > 100 µM (inactive) | > 100 µM (inactive) |  | > 100 µM (inactive) | > 100 µM (inactive) | > 100 µM (inactive) | > 100 µM (inactive) | > 100 µM (inactive) | > 100 µM (inactive) | > 100 µM (inactive) | > 100 µM (inactive) | > 100 µM (inactive)
10 | CC[P+](C)(C)c1ccccc1 | > 100 µM (inactive) | > 100 µM (inactive) | > 100 µM (inactive) | > 100 µM (inactive) | > 100 µM (inactive) | > 100 µM (inactive) | > 100 µM (inactive) | > 100 µM (inactive) | > 100 µM (inactive) | 99.3 µM (inactive) |  | > 100 µM (inactive) | > 100 µM (inactive) | > 100 µM (inactive) | 
11 | c1ccc(NC[Si]23OCCN(CCO2)CCO3)cc1 | > 100 µM (inactive) | > 100 µM (inactive) | > 100 µM (inactive) | > 100 µM (inactive) | > 100 µM (inactive) | > 100 µM (inactive) | > 100 µM (inactive) | > 100 µM (inactive) | > 100 µM (inactive) |  | > 100 µM (inactive) | > 100 µM (inactive) | > 100 µM (inactive) | > 100 µM (inactive) | > 100 µM (inactive)
12 | C#CCN(Cc1ccc2nc(-c3ccccc3)c(Cl)nc2c1)c1ccc(Cl)c(Cl)c1 | > 100 µM (inactive) | > 100 µM (inactive) | > 100 µM (inactive) | > 100 µM (inactive) | 33.5 µM (inactive) |  | > 100 µM (inactive) | > 100 µM (inactive) | > 100 µM (inactive) | > 100 µM (inactive) | > 100 µM (inactive) | > 100 µM (inactive) | > 100 µM (inactive) | > 100 µM (inactive) | > 100 µM (inactive)
13 | NC(=S)N/N=C/C(O[C@@H](/C=N/NC(N)=S)CO)n1cnc2c(N)ncnc21 (stereo not given in full) | > 100 µM (inactive) |  | > 100 µM (inactive) | 50.7 µM (inactive) | > 100 µM (inactive) | > 100 µM (inactive) | > 100 µM (inactive) | > 100 µM (inactive) | > 65.3 µM (inactive) | > 100 µM (inactive) | > 47.9 µM (inactive) | > 100 µM (inactive) | > 100 µM (inactive) | > 100 µM (inactive) | 24.4 µM (inactive)
14 | O=[N+]([O-])c1ccc(Sc2c3ccccc3nc3cc(Cl)ccc23)cc1 | > 10 µM (inactive) | > 10 µM (inactive) | > 10 µM (inactive) | 34.4 µM (inactive) | > 10 µM (inactive) | 37.5 µM (inactive) | > 10 µM (inactive) | > 10 µM (inactive) |  | > 10 µM (inactive) | > 10 µM (inactive) | > 10 µM (inactive) | > 10 µM (inactive) |  | > 10 µM (inactive)
15 | CC(C)(Oc1ccc2c(=O)cc(-c3ccc(Cl)cc3)oc2c1)C(=O)Nc1c(Cl)cccc1Cl | 25 µM (inactive) | > 100 µM (inactive) | > 100 µM (inactive) | > 100 µM (inactive) |  |  | > 100 µM (inactive) | > 100 µM (inactive) | > 100 µM (inactive) |  | > 100 µM (inactive) | > 100 µM (inactive) | > 100 µM (inactive) | > 100 µM (inactive) | > 100 µM (inactive)
16 | CCC12CCCN(Cc3ccccc3)C1c1c(n(C)c3ccccc13)CC2 (stereo not given) |  | > 253 µM (inactive) | 117 µM (inactive) | 101 µM (inactive) | 151 µM (inactive) | 97.3 µM (inactive) | > 253 µM (inactive) | > 253 µM (inactive) | > 25.3 µM (inactive) |  | 61.1 µM (inactive) |  | 107 µM (inactive) | 111 µM (inactive) | 141 µM (inactive)
17 | O=C(O/N=C1/CCC/C1=C\c1ccccc1)c1ccccc1 |  | > 100 µM (inactive) | > 100 µM (inactive) | 27.4 µM (inactive) |  | > 100 µM (inactive) |  | 29.8 µM (inactive) | > 100 µM (inactive) | > 100 µM (inactive) | 53 µM (inactive) | > 100 µM (inactive) | > 100 µM (inactive) | > 100 µM (inactive) | > 100 µM (inactive)
18 | CC(=O)Oc1c2c(c(OC(C)=O)c3c1n(C(C)=O)c1ccccc1n3C(C)=O)n(C(C)=O)c1ccccc1n2C(C)=O | 12.6 µM (inactive) | 5.18 µM (inactive) | 8.81 µM (inactive) | 2.3 µM (inactive) | 3.67 µM (inactive) | 8.38 µM (inactive) | 12.4 µM (inactive) | > 10 µM (inactive) | 6.22 µM (inactive) | 16.9 µM (inactive) | 2.3 µM (inactive) |  | 3.42 µM (inactive) | 8.24 µM (inactive) | 1.95 µM (inactive)
19 | COc1cc(C2c3cc4c(cc3C(NCC(O)CO)C3COC(=O)[C@H]23)OCO4)cc(OC)c1OC (stereo not given in full) | 4.37 µM (inactive) |  | 0.213 µM (active) | 0.272 µM (active) | 0.428 µM (active) |  | 0.356 µM (active) | 0.4 µM (active) |  |  | 0.0405 µM (active) | > 100 µM (inactive) | > 100 µM (inactive) | 0.267 µM (active) | 
20 | O=C(NC1C(=O)NNC1c1cccc([N+](=O)[O-])c1)c1ccccc1 (stereo not given) | > 100 µM (inactive) | > 100 µM (inactive) | > 100 µM (inactive) | > 100 µM (inactive) | > 100 µM (inactive) | > 100 µM (inactive) | > 100 µM (inactive) | > 100 µM (inactive) | > 100 µM (inactive) | > 100 µM (inactive) |  | > 100 µM (inactive) | > 100 µM (inactive) | > 100 µM (inactive) | > 100 µM (inactive)
